Numbered stars: 1 amine (or outer) side, 2 acyl side, 3 side chain; on linkers, the order of the positions; unused ones are H or OH. Bridge positions count the residues as written; N and C are the ends. Square brackets hold non-standard residues; d marks the D form. Peptide text beside a SMILES is read from it. Trp(5-F) = N[C@@H](Cc1c[nH]c2ccc(F)cc12)C(=O)O; X3 = O=C(CCSCc1cc(F)cc(CSCCN[*:1])c1)[*:2]; Lys(Me3) = C[N+](C)(C)CCCC[C@H](N)C(=O)O; X1 = O=C(CCSCc1cccc(CSCCN[*:1])c1)[*:2]; mXylylene = c1cc(C[*:1])cc(C[*:2])c1; αMeP = C[C@@]1(C(=O)O)CCCN1; Mpa = O=C(O)CCS
Legend:
[1] = molecular target: PCSK9/LDLR (Homo sapiens, UniProt Q8NBP7); assay: Inhibition of avi-tagged-biotinylated human PCSK9 interaction with His-tagged human LDLR EGFa domain by LANCE Ulight Streptavidin based TR-FRET assay; type: protein assay
PCSK9/LDLR, sequence (Q8NBP7 31-152 limits assumed): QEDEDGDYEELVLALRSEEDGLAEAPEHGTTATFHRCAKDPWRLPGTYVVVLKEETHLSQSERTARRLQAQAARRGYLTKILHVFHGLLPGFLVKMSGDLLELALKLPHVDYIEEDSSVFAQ
PCSK9/LDLR, sequence (Q8NBP7 153-692 limits assumed): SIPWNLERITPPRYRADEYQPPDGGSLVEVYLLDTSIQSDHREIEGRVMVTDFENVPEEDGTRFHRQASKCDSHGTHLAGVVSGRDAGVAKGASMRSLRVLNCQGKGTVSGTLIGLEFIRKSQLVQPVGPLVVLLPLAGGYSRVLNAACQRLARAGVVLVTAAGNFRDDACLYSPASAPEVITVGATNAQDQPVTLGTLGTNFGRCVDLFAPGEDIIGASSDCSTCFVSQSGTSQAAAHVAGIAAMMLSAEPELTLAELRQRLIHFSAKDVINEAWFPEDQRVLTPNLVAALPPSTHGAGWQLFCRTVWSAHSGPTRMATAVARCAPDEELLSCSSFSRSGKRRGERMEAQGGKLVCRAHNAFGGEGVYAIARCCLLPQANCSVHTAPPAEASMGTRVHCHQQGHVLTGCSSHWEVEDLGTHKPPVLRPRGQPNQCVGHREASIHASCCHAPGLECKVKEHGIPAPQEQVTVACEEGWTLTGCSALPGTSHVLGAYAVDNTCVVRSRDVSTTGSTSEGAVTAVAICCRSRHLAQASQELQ
PCSK9/LDLR, sequence (P01130 22-860 partner limits assumed): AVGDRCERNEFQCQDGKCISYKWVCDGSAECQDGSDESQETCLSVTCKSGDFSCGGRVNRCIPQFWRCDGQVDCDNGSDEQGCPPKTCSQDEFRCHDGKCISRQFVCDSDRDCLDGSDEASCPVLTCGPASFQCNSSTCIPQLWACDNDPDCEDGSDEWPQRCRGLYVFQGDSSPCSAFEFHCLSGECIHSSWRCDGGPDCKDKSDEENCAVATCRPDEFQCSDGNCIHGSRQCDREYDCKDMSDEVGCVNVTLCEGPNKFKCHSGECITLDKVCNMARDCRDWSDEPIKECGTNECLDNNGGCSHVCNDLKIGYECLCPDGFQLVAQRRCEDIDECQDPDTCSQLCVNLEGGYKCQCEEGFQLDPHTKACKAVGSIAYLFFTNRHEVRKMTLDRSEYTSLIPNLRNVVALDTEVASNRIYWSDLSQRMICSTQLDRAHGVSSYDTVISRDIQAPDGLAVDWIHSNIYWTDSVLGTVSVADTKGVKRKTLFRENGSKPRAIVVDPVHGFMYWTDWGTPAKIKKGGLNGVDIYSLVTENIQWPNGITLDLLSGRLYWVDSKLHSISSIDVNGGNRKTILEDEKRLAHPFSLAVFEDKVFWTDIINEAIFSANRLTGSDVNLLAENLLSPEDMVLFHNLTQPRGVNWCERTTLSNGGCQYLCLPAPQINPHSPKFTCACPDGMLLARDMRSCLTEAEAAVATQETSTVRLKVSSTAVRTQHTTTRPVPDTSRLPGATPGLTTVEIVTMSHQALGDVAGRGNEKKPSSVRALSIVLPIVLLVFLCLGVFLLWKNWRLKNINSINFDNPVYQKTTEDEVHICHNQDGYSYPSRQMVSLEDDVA

[2] = AUC (0 to infinity) in C57BL/6 mouse at 1 mg/kg, iv by LC-MS/MS analysis; type: ADME, organism-based; parameters: route intravenous, time infinity, dose 1 mg/kg; settings: C57BL/6, mouse, in vivo
[3] = AUC (0 to X) in C57BL/6 mouse at 1 mg/kg, iv by LC-MS/MS analysis; type: ADME, organism-based; parameters: dose 1 mg/kg; settings: in vivo
[4] = Clearance in C57BL/6 mouse at 1 mg/kg, iv by LC-MS/MS analysis; type: ADME, organism-based; settings: in vivo
[5] = Volume of distribution at steady state in C57BL/6 mouse at 1 mg/kg, iv by LC-MS/MS analysis; type: ADME, organism-based; settings: in vivo, read-out: Vdss
[6] = Half life in C57BL/6 mouse at 1 mg/kg, iv by LC-MS/MS analysis; type: ADME, organism-based; settings: in vivo
[7] = Protein binding in mouse plasma at 2.5 uM measured after 4 hrs by equilibrium dialysis based LC-MS/MS analysis; type: ADME, cell-free; settings: read-out: PPB (converted)
[8] = molecular target: Chymotrypsinogen A (Bos taurus, UniProt P00766); assay: Enzymatic stability assessed as bovine pancreatic alpha-chymotrypsin-mediated compound hydrolysis by measuring parent compound remaining at 100 uM incubated for 1 hr by LC-MS/MS analysis; type: ADME; settings: cattle, read-out: Stabilty
[9] = molecular target: Chymotrypsin-like elastase family member 1 (Sus scrofa, UniProt P00772); assay: Enzymatic stability assessed as porcine type 4 pancreatic elastase-mediated compound hydrolysis by measuring parent compound remaining at 100 uM incubated for 1 hr by LC-MS/MS analysis; type: ADME; settings: pig, read-out: Stabilty
Chymotrypsin-like elastase family member 1, sequence (P00772 whole entry): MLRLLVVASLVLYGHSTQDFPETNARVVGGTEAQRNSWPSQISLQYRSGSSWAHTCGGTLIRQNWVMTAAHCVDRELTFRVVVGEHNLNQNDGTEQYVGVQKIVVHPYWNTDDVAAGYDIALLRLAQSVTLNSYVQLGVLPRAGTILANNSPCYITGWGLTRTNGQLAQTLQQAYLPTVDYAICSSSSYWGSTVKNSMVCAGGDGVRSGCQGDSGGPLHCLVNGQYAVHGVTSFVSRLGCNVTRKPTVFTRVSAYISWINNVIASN

[10] = Enzymatic stability assessed as porcine pepsin-mediated compound hydrolysis by measuring parent compound remaining at 100 uM incubated for 1 hr by LC-MS/MS analysis; type: ADME, Sus scrofa; settings: pig, read-out: Stabilty
[11] = Enzymatic stability assessed as bovine pancreatic trypsin-mediated compound hydrolysis by measuring parent compound remaining at 100 uM incubated for 1 hr by LC-MS/MS analysis; type: ADME, Bos taurus; settings: cattle, read-out: Stabilty
[12] = Half life in C57BL/6 mouse whole blood at 100 uM by LC-MS/MS analysis; type: ADME, tissue-based
[13] = Half life in cynomolgus monkey whole blood at 100 uM by LC-MS/MS analysis; type: ADME, tissue-based, Macaca fascicularis
[14] = molecular target: Proprotein convertase subtilisin/kexin type 9 (Homo sapiens, UniProt Q8NBP7); assay: Inhibition of AlexaFluor647-tagged cyclic peptide binding to avi-tagged-biotinylated human PCSK9 measured after 2 hrs by Lance Streptavidin Europium based FRET assay
Proprotein convertase subtilisin/kexin type 9, sequence (Q8NBP7 31-152 limits assumed): as the sequence (Q8NBP7 31-152 limits assumed) above
Proprotein convertase subtilisin/kexin type 9, sequence (Q8NBP7 153-692 limits assumed): as the sequence (Q8NBP7 153-692 limits assumed) above

[15] = Induction of mast cell degranulation in Wistar rat isolated peritoneal cells assessed as effect on histamine release measured after 30 mins; type: tissue-based
[16] = Cytotoxicity against Wistar rat isolated peritoneal cells assessed as reduction in cell viability up to 60 uM measured after 30 mins; type: cell-based; settings: peritoneal macrophage cell, 0.5 h
[17] = AUC (0 to infinity) in Wistar Han rat at 1 mg/kg, iv by LC-MS/MS analysis; type: ADME, organism-based; parameters: route intravenous, time infinity, dose 1 mg/kg; settings: Wistar Han, in vivo
[18] = AUC (0 to X) in Wistar Han rat at 1 mg/kg, iv by LC-MS/MS analysis; type: ADME, organism-based; parameters: dose 1 mg/kg; settings: in vivo
[19] = Clearance in Wistar Han rat at 1 mg/kg, iv by LC-MS/MS analysis; type: ADME, organism-based; settings: in vivo
[20] = Volume of distribution at steady state in Wistar Han rat at 1 mg/kg, iv by LC-MS/MS analysis; type: ADME, organism-based; settings: in vivo, read-out: Vdss
[21] = Half life in Wistar Han rat at 1 mg/kg, iv by LC-MS/MS analysis; type: ADME, organism-based; settings: in vivo
[22] = Protein binding in Wistar Han rat plasma; type: ADME, cell-free; settings: read-out: PPB (converted)
[23] = Rattus norvegicus, Wistar, Mast cell, 0.5 h, read-out: EC50

SMILES	Ki [1] [nM]	AUC(0-inf) [2] [µM·h]	AUC [3] [µM·h]	clearance [4] [mL/min/kg]	Vd [5] [L/kg]	half-life [6] [min]	fraction unbound at 4 h, 2.5 µM [7]	remaining at 1 h, 100 µM [8] [%]	remaining at 1 h, 100 µM [9] [%]	remaining at 1 h, 100 µM [10] [%]	remaining at 1 h, 100 µM [11] [%]	half-life at 100 µM [12] [min]	half-life at 100 µM [13] [min]	Ki [14] [nM]	Activity [16]	also measured
C[C@H]1NC(=O)[C@H](CCCCN)NC(=O)CCSCc2cccc(c2)CSCCNC(=O)[C@]2(C)CCCN2C(=O)[C@H](Cc2ccc(O)cc2)NC(=O)[C@H](Cc2cnc[nH]2)NC(=O)[C@H](CC(=O)O)NC(=O)[C@H](Cc2c[nH]c3ccc(F)cc23)NC(=O)[C@H](Cc2c[nH]c3ccc(F)cc23)NC1=O	23.3	0.492	0.491	24.2	0.29	46.8	0.0077	42.7	99.1	93.7	79.5	186	> 360	4.2		
NCCCC[C@@H]1NC(=O)CCSCc2cccc(c2)CSC[C@@H](C(N)=O)NC(=O)[C@@H]2CCCN2C(=O)[C@H](Cc2ccc(O)cc2)NC(=O)[C@H](Cc2c[nH]cn2)NC(=O)[C@H](CC(=O)O)NC(=O)[C@H](Cc2c[nH]c3ccc(F)cc23)NC(=O)[C@H](Cc2c[nH]c3ccc(F)cc23)NC(=O)CNC1=O	110	0.242	0.241	51.7	0.7	62.4	0.0498	12	60.7	95	1.2	63.2			Non-Toxic	EC50 [15, 23]: 6.67 µM
CC(C)[C@H]1NC(=O)[C@H](CCCCN)NC(=O)CCSCc2cccc(c2)CSCCNC(=O)[C@]2(C)CCCN2C(=O)[C@H](Cc2ccc(O)cc2)NC(=O)[C@H](Cc2cnc[nH]2)NC(=O)[C@H](CC(=O)O)NC(=O)[C@H](Cc2c[nH]c3ccc(F)cc23)NC(=O)[C@H](Cc2c[nH]c3ccc(F)cc23)NC1=O	17.6	2.51	2.49	4.62	0.1	15	0.001	76.4	100	100	94.3	> 360		6.3		
COc1ccc(C[C@@H]2NC(=O)[C@H]([C@@H](C)O)NC(=O)[C@@H]3CCC(=O)NCc4cccc(c4)C[C@H](NC(=O)[C@@H](C)NC(=O)[C@H](C)NC(=O)CCSCc4cccc(c4)CSCCNC(=O)[C@]4(C)CCCN4C2=O)C(=O)N[C@@H](Cc2c[nH]c4ccc(F)cc24)C(=O)N3)cc1		0.841	0.84	16	0.23	39.6	0.015	2.5	100	98.2	100	> 360	113	1.5		
C[C@@]12CCCN1C(=O)[C@H](Cc1ccc(O)cc1)NC(=O)[C@H](Cc1cnc[nH]1)NC(=O)[C@H](CC(=O)O)NC(=O)[C@H](Cc1c[nH]c3ccc(F)cc13)NC(=O)[C@H](Cc1c[nH]c3ccc(F)cc13)NC(=O)CNC(=O)[C@H](CCCCN)NC(=O)CCSCc1cccc(c1)CSC[C@@H](C(N)=O)NC2=O ([Mpa]KG[Trp(5-F)][Trp(5-F)]DHY[αMeP]C-NH2; linker 1-10 via mXylylene)	14	0.181	0.185	65.4	1.2	19.8	0.0515	10.9	52.7	94	0.9	311	> 360	4	Non-Toxic	EC50 [15, 23]: 6.67 µM
COc1ccc(C[C@@H]2NC(=O)[C@H](Cc3cnc[nH]3)NC(=O)[C@H](CC(=O)O)NC(=O)[C@H](Cc3c[nH]c4ccc(F)cc34)NC(=O)[C@H](Cc3c[nH]c4ccc(F)cc34)NC(=O)[C@@H](C)NC(=O)[C@H](CCCC[N+](C)(C)C)NC(=O)CCSCc3cccc(c3)CSCCNC(=O)[C@]3(C)CCCN3C2=O)cc1 (cyclo(DHY(Me)[αMeP][X1][Lys(Me3)][dA][Trp(5-F)][Trp(5-F)]))		0.933	0.896	6.2	0.45	69.6	0.007	24.2	68.2	87.5	98.4	> 360		9.5	Non-Toxic	EC50 ([15]; mast cell): Non-Toxic; AUC(0-inf) [17]: 3.65 µM·h; AUC [18]: 3.65 µM·h; clearance [19]: 3.16 mL/min/kg; Vd [20]: 0.17 L/kg; half-life [21]: 148 min; fraction unbound [22]: 0.001
C[C@H]1NC(=O)[C@H](CCCCN)NC(=O)CCSCc2cc(F)cc(c2)CSCCNC(=O)[C@]2(C)CCCN2C(=O)[C@H](Cc2ccc(O)cc2)NC(=O)[C@H](Cc2cnc[nH]2)NC(=O)[C@H](CC(=O)O)NC(=O)[C@H](Cc2c[nH]c3ccc(F)cc23)NC(=O)[C@H](Cc2c[nH]c3ccc(F)cc23)NC1=O (cyclo(DHY[αMeP][X3]K[dA][Trp(5-F)][Trp(5-F)]))								20.1	96.5	96.6	91	> 360	> 360	1.5		

Reference: ChEMBL document CHEMBL4699634, “Series of Novel and Highly Potent Cyclic Peptide PCSK9 Inhibitors Derived from an mRNA Display Screen and Optimized via Structure-Based Design” (J Med Chem, 2020)
